From patent publication US6710066B2, “Photochemotherapeutic method using 5-aminolevulinic acid and other precursors of endogenous porphyrins” (priority 1989, dated 2004)

Experiments:
[1] = system: P. yoelii
Description: (A) Infectivity Assay: Mice infected with P. yoelii were given a standard dose of ALA by intraperitoneal injection. Peripheral blood and/or spleen cells were collected after a standard interval, exposed to standard doses of photoactivating light (including a no-light control) and then injected into normal mice.
Four hours later, its spleen cells were suspended in isotonic saline. Half of the spleen cell suspension was placed on ice and ekxposed to photoactivating light (waveband 600-700 nm, intensity […], total dose 540 J/cm^2), while the other half was kept on ice in the dark. Balb/c mice were injected intraperitoneally with either the light treated or untreated sample. Survival of the mice was followed for 90 days. FIG. 1 illustrates the duration of survival of individual mice following the injection of spleen cells infected with P. yoelii.

[2] = system: L. donovani; test: PpIX accumulation on exposure to exogenous ALA, Leishmania; settings: exposed to exogenous ALA
[3] = cited from earlier work
[4] = system: endometrium and myometrium; test: Endometrial fluorescence in vivo following topical application of ALA in the non-human primate; set-up: species or system rhesus monkey; settings: 50 mg ALA into uterine lumen, hysterectomy 3 hours later
Protocol: 50 mg of ALA was injected into the uterine lumen of an adult, healthy, female rhesus monkey following exposure of the uterus at laparotomy. A hysterectomy was performed 3 hours later and cross sectional slices incorporating endometrial and myometrial tissue were taken from the uterine specimen. These slices were subjected to examination by fluorescence microscopy as in Example 2 and 3 above.

[5] = system: P. yoelii; test: ALA-induced fluorescence within erythrocytes parasitized by P. yoelii, mice given ALA
[6] = system: Lumbricus terrestris (dewworm); test: PpIX accumulation on exposure to exogenous ALA, dewworm; settings: exposed to exogenous ALA
[7] = system: P. chabaudi
Description: These examples involve the murine malarial parasites Plasmodium yoelii (lethal strain) and Plasmodium chabaudi (non-lethal strain) as models for human malaria.

[8] = ALA in vivo, then photoactivating light
[9] = exposed to exogenous ALA, Example 10 list
[10] = 250 mg/kg ALA intraperitoneal, heavily parasitized mice
[11] = ALA injected into infected mice
[12] = ALA by intraperitoneal injection

NCC(=O)CCC(=O)O [ALA, 5-Amino-4-oxopentanoic acid]
ability of plasmodia to accumulate calcein from calcein-AM [1, 8]: lost their normal ability to accumulate calcein
ability of plasmodia to cause malaria in recipient mice [1, 8]: lost their ability to cause malaria when injected into recipient mice
survival of recipients of infected spleen cells ([1]; donor 250 mg/kg ALA, cells exposed to photoactivating light 600-700 nm, 540 J/cm^2): remained in good health for 90 days
average survival of recipients of infected spleen cells ([1]; donor 250 mg/kg ALA, cells kept in the dark): 15 days
accumulation of photosensitizing concentrations of PpIX [1, 9]: ALA-induced photosensitization
accumulation of fluorescing concentrations of PpIX [2]: ALA-induced fluorescence
solubility in water [3]: water soluble
fluorescence in endometrium [4]: Fluorescence was observed throughout the endometrium of all slices
fluorescence in myometrium [4]: No fluorescence was observed
protoporphyrin fluorescence of pellet and supernatant after saponin hemolysis ([5]; 250 mg/kg ALA IP, 4 hours, excitation 410 nm, emission 635 nm): Protoporphyrin fluorescence was detected only in Plasmodial pellet derived from infected mice given ALA
fluorescence microscopy of blood/spleen cells ([5]; 250 mg/kg ALA intraperitoneal): Red fluorescence developed within parasitized erythrocytes
fluorescence flow cytometry of peripheral blood and spleen erythrocytes [5, 10]: developed red fluorescence
spectrophotofluorometry of blood and spleen cell pellets [5, 10]: Protoporphyrin was the only fluorophore that was identified
erythrocyte fluorescence by flow cytometer (accumulation of PpIX) ([5]; 250 mg/kg ALA intraperitoneal, tail blood at intervals): Only infected mice given ALA developed fluorescence in their erythrocytes
PpIX accumulation in non-infected erythrocytes and leukocytes [5, 11]: significant concentrations of PpIX did not accumulate
PpIX accumulation in plasmodia within erythrocytes [5, 11]: accumulated in many of the plasmodia
accumulation of fluorescing concentrations of PpIX [5, 9]: ALA-induced fluorescence
accumulation of fluorescing concentrations of PpIX [6]: ALA-induced fluorescence
accumulation of photosensitizing concentrations of PpIX [6]: ALA-induced photosensitization
PpIX accumulation in non-infected erythrocytes and leukocytes [7, 12]: significant concentrations of PpIX did not accumulate
PpIX accumulation in plasmodia within erythrocytes [7, 12]: accumulated in many of the plasmodia
ability of plasmodia to accumulate calcein from calcein-AM [7, 8]: lost their normal ability to accumulate calcein
ability of plasmodia to cause malaria in recipient mice [7, 8]: lost their ability to cause malaria when injected into recipient mice
accumulation of fluorescing concentrations of PpIX [7, 9]: ALA-induced fluorescence
accumulation of photosensitizing concentrations of PpIX [7, 9]: ALA-induced photosensitization
damage to non-infected erythrocytes and leukocytes ([7]; mouse, in vivo): showed no morphological evidence of damage
